# From patent US20010038832A1, “Nitric oxide and analogues thereof effectuate sensitization of neoplasm and immunologically undesired tissues to cytotoxicity” (priority 2000, published 2001)
# B1: IFN-γ: human recombinant IFN-γ, gamma interferon cytokine (protein, UniProt P01579 24-161, looked up)
# Interferon gamma: QDPYVKEAENLKKYFNAGHSDVADNGTLFLGILKNWKEESDRKIMQSQIVSFYFKLFKNFKDDQSIQKSVETIKEDMNVKFFNSNKKKRDDFEKLTNYSVTDLNVQRKAIHELIQVMAELSPAAKTGKRKRSQMLFRG
# Key:
# Type in all cases: cell-based
# [1] = test system: AD10 cells; experiment: Fas-mediated cytotoxicity (CH11, LDH release), AD10 cells
# Protocol: (§1) In a preferred embodiment, A2780 and AD10 cells (1×10^4 cells/well) were cultured in 96-well plates supplemented with 10%FCS and pretreated with increasing concentrations of IFN-γ (0, 10, 100 and 1000 U/mL) 18 h prior to performing the cytotoxicity assay with increasing concentrations of the anti-Fas agonist antibody CH11 (0, 0.01, and 0.1 μg/mL).
# (§2) Now also referring to FIGS. 3A and B, therein the role of iNOS in the mechanism of sensitization to Fas-mediated cytotoxicity of ovarian carcinoma cells is illustrated. Ovarian carcinoma cells, A2780 and AD10, were respectively incubated in the presence or in the absence of the competitive NOS inhibitor L-NMA (1 mM) 6 h prior to IFN-γ treatment. […] Furthermore, it is herein illustrated that the parental cell line A2780, which is not able to express iNOS upon IFN-γ stimulation, was not sensitized at the same level when compared with the adriamycin resistant cell line AD10, which is induced by IFN-γ alone to express iNOS.
# (§3) The role of the endogenously generated NO in the IFN-γ-mediated sensitization to Fas-induced apoptosis was corroborated by the use of an exogenous source of NO, which mimics the production of NO by iNOS. […]
# (§4) This example describes a preferred method of determining cytotoxicity. Sensitization to Fas-mediated apoptosis was assessed using the agonist anti-Fas monoclonal antibody CH11(IgM) [0.01, 0.1 and 1 μg/mL] […] After the initial incubation for each different experimental condition, released LDH into the culture supernatants was measured with a 30-minute coupled enzymatic assay which results in the conversion of a tetrazolium salt (INT) into a red formazan product that is read at 490 nm in an automated plate reader (Emax, Molecular Devices, Sunnyvale, Calif.). Percentage cytotoxicity was calculated using the spontaneous release-corrected OD as follows: % cytotoxicity=(OD of experimental well/OD of maximum release control well)×100.
# [2] = test system: Fas surface molecule on AD10 cells; experiment: Fas surface molecule expression by flow cytometry, AD10 cells
# Protocol: (§5) This example describes one preferred method of separating and sorting cells through fluorescence-activated cell sorting (FACS). Surface Fas antigen expression on tumor cells was determined by flow cytometry. Briefly, harvested cells were washed with cold buffer consisting of PBS without Ca^++ or Mg^++ with 2% heat-inactivated FCS and 0.1% sodium azide. 2×10^5 cells per sample were pretreated with human AB serum (Gemini Bioproducts, Calabasas, Calif.) for 1 h, washed twice and resuspended in 50 μl of PBS. The cells were incubated with 10 μg/mL of anti-Fas monoclonal antibody FITC-conjugated (PharMingen, San Diego, Calif.) or isotype control antibody for 1 h. The cells were then washed twice and fixed in 2% paraformaldehyde solution (Sigma Chemical Co., St. Louis, Mo.) and flow cytometry was conducted all the FACScan facility of the UCLA Department of Microbiology and Immunology.
# [3] = test system: AD10 cells; experiment: Apoptosis by acridine orange/ethidium bromide staining, AD10 cells
# Protocol: Now referring to FIGS. 5a through f, sensitization of AD10 to CH11 (Fas-ligand agonist)-mediated cytotoxicity was due to apoptosis. The morphological pattern was examined by staining the ovarian carcinoma cells with acridine orange/ethidium bromide (AO/EB).
# This example describes one preferred embodiment for determining apoptosis through acridine orange/ethidium bromide staining. Characteristic apoptotic morphological changes were assessed by fluorescent microscopy using the acridine-orange and ethidium bromide staining (AO/EB) method. Briefly, adherent cells, under different experimental conditions, were cultured in 24 wells plates, and washed with PBS once prior to staining. Monolayers of adherent cells were covered with 100 μl of AO/EB solution (4 μg/mL of each). Immediately after adding the AO/EB solution, each sample was examined under an inverted/fluorescent microscope.
# [4] = test system: Fas receptor mRNA in AD10 cells; experiment: Fas receptor mRNA expression by RT-PCR, AD10 cells
# [5] = test system: Fas receptor protein in AD10 cells; experiment: Fas receptor protein level by Western blot, AD10 cells; details: FIG. 6C
# Protocol: Now referring to FIG. 6C, the upregulation of Fas receptor was corroborated by Western blot. IFN-γ induced AD10 cells (1×10^7/plate) were cultured in a 100-mm plate supplemented with 10% FCS.
# This example describes one preferred method of determining protein expression. Cell extracts for iNOS and Fas receptor analysis were prepared by lysing 5×10^6 cells in 1 mL phosphate buffer solution [10 mM EDTA, 1% triton X-100, 1 mM Phenylmethylsulfonyl fluoride (PMSF) and 0.01% leupeptin]. Cell lysates were boiled (3 min) with 1 volume gel loading buffer [50 mM Tris/10% sodium dodecyl sulfate (SDS)/10% glycerol/10% 2-mecaptoethanol/2 mg/mL bromophenol blue] and centrifuged at 1×10^4 g for 10 min. Protein concentrations of the supernatants were determined according to Bradford, and total protein equivalents for each sample were separated on 12% SDS-polyacrylamide minigels (Bio-Rad, Richmond, Calif.) and transferred to nitrocellulose membranes (Amersham Corp., Arlington Heights, Ill.). Nonspecific immunoglobulin G (IgG) binding sites were blocked with 5% dried milk protein, and samples were then incubated with the antibody to iNOS [1:1000] (Transduction Laboratories, Lexington, Ky.) or CD95 [1:500] (PharMingen, San Diego, Calif.).
# [6] = test system: A2780 cells; experiment: Fas-mediated cytotoxicity (CH11, LDH release), A2780 cells
# Protocol: as §1, §2, §3, §4
# [7] = test system: NO production by iNOS in AD10 cells; experiment: NO2-/NO3- release into culture medium (Griess reaction), AD10 cells; details: FIG. 1B
# Protocol: (§6) The activity of iNOS and generated NO were monitored by the release of NO2^−/NO3^− into the cell culture medium as determined by the Griess reaction.
# (§7) This example describes one preferred method of determining nitrate and nitrite concentrations. Nitric oxide generation was monitored indirectly by levels of nitrite/nitrate (NO2^−/NO3^−) released into the culture medium as determined by the diazotization reaction of Griess with NaNO2 as standard Briefly, 50 μl aliquots of cell culture supernatants from each sample were mixed with one volume of Griess reagent [1% sulfanilamide; 0.1% naphthylethylene diamine dihydrochloride; 2.5% H3PO4] and incubated at room temperature for 10 min. The absorbance at 550 nm was measured in an automated plate reader (Emax, Molecular Devices, Sunnyvale, Calif.). Nitrite concentrations were calculated by comparison with OD550 values of standard solutions of sodium nitrite prepared in culture medium.
# [8] = test system: iNOS mRNA in AD10 ovarian carcinoma cells; experiment: iNOS mRNA expression by semiquantitative RT-PCR in AD10 cells; details: 18 hours, FIG. 1A
# [9] = test system: iNOS expression in A2780 ovarian carcinoma cell line; experiment: iNOS expression in A2780 cells; details: parental A2780 cell line, data not shown
# [10] = test system: NO generation in A2780 cells; experiment: NO generation upon IFN-γ stimulation, A2780 cells
# Protocol: as §6, §7
# [11] = test system: Fas surface molecule on A2780 cells; experiment: Fas surface molecule expression by flow cytometry, A2780 cells; details: A2780, FIG. 6D legend
# Protocol: as §5
molecule,measurement,setting,value
"CC(=O)N[C@H](C(=O)O)C(C)(C)SN=O (racemic) [SNAP, S-Nitroso-N-acetylpenicillamine]",sensitization to Fas-mediated cytotoxicity by NO donor,"[1]; AD10, NO donor 10 and 100 μM for 24 h before CH11, LDH release, FIG. 4B",sensitized
same,Fas surface expression after NO donor added to IFN-γ plus NOS inhibitor,"[2]; AD10, FIG. 6D",restored
same,"number of apoptotic cells, NO donor alone","[3]; AD10, NO donor alone, no CH11",did not increase the number of apoptotic cells
same,"frequency of cells undergoing apoptosis, NO donor prior to CH11","[3]; AD10, SNAP prior to exposure to CH11",increased the frequency of cells undergoing characteristic apoptosis
same,Fas receptor mRNA expression with NO donor,"[4]; AD10, SNAP 0, 1, 10 and 100 μM, 18 h, FIG. 6A",upregulated Fas receptor mRNA expression
same,Fas protein level after addition of SNAP to IFN-γ plus NOS inhibitor,[5],restored
same,sensitization to Fas-mediated cytotoxicity by NO donor,"[6]; A2780, NO donor 10 and 100 μM for 24 h before CH11, LDH release, FIG. 4A",sensitized
"CNC(=N)NCCC[C@H](N)C(=O)O [L-NMA, N^G-Monomethyl-L-arginine]",effect of NOS inhibition on IFN-γ-mediated sensitization to Fas-mediated apoptosis,"[1]; AD10, L-NMA 1 mM 6 h prior to IFN-γ, FIG. 3B",significantly decreased
same,IFN-γ-increased Fas surface expression with NOS inhibitor,"[2]; AD10, IFN-γ 10 U/mL, FIG. 6D",partially blocked
same,frequency of cells undergoing apoptosis with NOS inhibitor,"[3]; AD10, L-NMA 1 mM 6 h prior to IFN-γ pretreatment, then CH11",significantly reduced
same,Fas mRNA expression with NOS blocking,"[4]; AD10, IFN-γ 10 and 100 U/mL, L-NMA 1.0 mM, 24 hours, FIG. 6B",markedly reduced
same,IFN-γ mediated upregulation of Fas protein level in presence of NOS inhibitor,[5],markedly reduced
same,effect of NOS inhibitor on IFN-γ-induced NO2-/NO3- generation,[7]; L-NMA 1.0 mM prior to IFN-γ induction,blocking the generation of NO2^−/NO3^−
same,effect of NOS inhibition on IFN-γ-mediated sensitization to Fas-mediated apoptosis,"[6]; A2780, L-NMA 1 mM 6 h prior to IFN-γ, FIG. 3A",did not respond to NOS blocking
"IFN-γ: human recombinant IFN-γ, gamma interferon cytokine",IFN-γ concentration at which significant levels of iNOS mRNA were observed,[8]; 1% FCS,1 U/mL
same,IFN-γ concentration at which plateau of iNOS mRNA expression was reached,[8],100 U/mL
same,iNOS expression upon IFN-γ treatment,[9],not possible to detect any iNOS expression
same,expression of Fas surface molecule vs untreated control cells,"[2]; AD10, IFN-γ 10 U/mL, 18 hours, FIG. 6D",increased expression
same,frequency of cells undergoing apoptosis vs untreated control group,"[3]; AD10, IFN-γ 18 h then CH11 0.1 μg/mL 6 h",greater frequency of cells undergoing apoptosis
same,Fas protein level with IFN-γ,[5],upregulation of Fas protein level
same,production of NO (nitrites and nitrates in culture medium) upon IFN-γ,"[7]; IFN-γ 0 to 1000 U/ml, 18 hours",can be induced by IFN-γ to produce NO by iNOS
same,NO generation upon IFN-γ stimulation,[10],cannot generate NO
same,expression of Fas surface molecule with IFN-γ,[11],increased expression
B1,sensitization to Fas-mediated cytotoxicity compared with untreated control group,"[1]; AD10, IFN-γ pretreatment 18 h, then CH11, FIG. 2B",10 fold
same,capacity of being sensitized by IFN-γ to Fas-mediated cytotoxicity,"[6]; A2780 compared with AD10, IFN-γ 18 h then CH11, FIG. 2A",lower capacity of being sensitized
